According to PubChem BioAssay AID1259407 (Chemical Carcinogenesis Research Information System (CCRIS), 2018):
Calls of active or inactive are those of the source. No rule for the calls is given here.

Tested on: CCRIS mutagenicity, Ames/micronucleus/aberration tests
Assay: CCRIS mutagenicity studies
[1] = Test System: AMES SALMONELLA TYPHIMURIUM, Strain/Indicator: TA98, Metabolic Activation: NONE, Method: PREINCUBATION
[2] = Test System: AMES SALMONELLA TYPHIMURIUM, Strain/Indicator: TA100, Metabolic Activation: NONE, Method: PREINCUBATION
[3] = Test System: AMES SALMONELLA TYPHIMURIUM, Strain/Indicator: TA98, Metabolic Activation: NONE, Method: STANDARD PLATE
[4] = Test System: AMES SALMONELLA TYPHIMURIUM, Strain/Indicator: TA98, Metabolic Activation: S-9, Method: STANDARD PLATE
[5] = Test System: AMES SALMONELLA TYPHIMURIUM, Strain/Indicator: TA100, Metabolic Activation: NONE, Method: STANDARD PLATE
[6] = Test System: AMES SALMONELLA TYPHIMURIUM, Strain/Indicator: TA100, Metabolic Activation: S-9, Method: STANDARD PLATE
[7] = Test System: AMES SALMONELLA TYPHIMURIUM, Strain/Indicator: TA1535, Metabolic Activation: NONE, Method: STANDARD PLATE

O=[N+]([O-])c1ccc2c(c1)CCc1c-2ccc2c1CCCC2
mutagenic call (Test System: AMES SALMONELLA TYPHIMURIUM, Strain/Indicator: TA98(1,8-DNP6), Metabolic Activation: NONE): active; positive | mutagenic call (Test System: AMES SALMONELLA TYPHIMURIUM, Strain/Indicator: TA98(1,8-DNP6), Metabolic Activation: RAT, LIVER, S-9, AROCLOR 1254): active; positive | mutagenic call (Test System: AMES SALMONELLA TYPHIMURIUM, Strain/Indicator: TA98(NR), Metabolic Activation: NONE): active; positive | mutagenic call (Test System: AMES SALMONELLA TYPHIMURIUM, Strain/Indicator: TA98(NR), Metabolic Activation: RAT, LIVER, S-9, AROCLOR 1254): active; positive | mutagenic call (Test System: AMES SALMONELLA TYPHIMURIUM, Strain/Indicator: TA98, Metabolic Activation: NONE): active; positive | mutagenic call (Test System: AMES SALMONELLA TYPHIMURIUM, Strain/Indicator: TA98, Metabolic Activation: RAT, LIVER, S-9, AROCLOR 1254): active; positive | mutagenic call (Test System: AMES SALMONELLA TYPHIMURIUM, Strain/Indicator: TA100(NR), Metabolic Activation: NONE): inactive; negative | mutagenic call (Test System: AMES SALMONELLA TYPHIMURIUM, Strain/Indicator: TA100(NR), Metabolic Activation: RAT, LIVER, S-9, AROCLOR 1254): active; positive | mutagenic call (Test System: AMES SALMONELLA TYPHIMURIUM, Strain/Indicator: TA100, Metabolic Activation: NONE): active; positive | mutagenic call (Test System: AMES SALMONELLA TYPHIMURIUM, Strain/Indicator: TA100, Metabolic Activation: RAT, LIVER, S-9, AROCLOR 1254): active; positive | mutagenic call (Test System: AMES SALMONELLA TYPHIMURIUM, Strain/Indicator: TA104, Metabolic Activation: NONE): active; positive | mutagenic call (Test System: AMES SALMONELLA TYPHIMURIUM, Strain/Indicator: TA104, Metabolic Activation: RAT, LIVER, S-9, AROCLOR 1254): active; positive

c1ccc2cc3c(cc2c1)cc1ccc2cccc4ccc3c1c24
mutagenic call (Test System: HUMAN H1A1V2 CELLS, Strain/Indicator: TK LOCUS, Metabolic Activation: NONE, Method: SUSPENSION/PLATE): active; positive

Cc1c(N)cc(N)cc1N
mutagenic call (Test System: CHINESE HAMSTER CELLS, Strain/Indicator: CHO CELLS(HPRT)/6-THIOGUANINE, Metabolic Activation: NONE, Method: SUSPENSION/PLATE): active; positive | mutagenic call (Test System: CHINESE HAMSTER CELLS, Strain/Indicator: CHO CELLS(HPRT)/6-THIOGUANINE, Metabolic Activation: RAT LIVER S-9, AROCLOR 1254, Method: SUSPENSION/PLATE): inactive; negative

Cc1cc(C)cc([N+](=O)[O-])c1
mutagenic call [1]: inactive; negative | mutagenic call (Test System: AMES SALMONELLA TYPHIMURIUM, Strain/Indicator: TA98, Metabolic Activation: RAT, LIVER, S-9, KANECHLOR 500, Method: PREINCUBATION): inactive; negative | mutagenic call [2]: inactive; negative | mutagenic call (Test System: AMES SALMONELLA TYPHIMURIUM, Strain/Indicator: TA100, Metabolic Activation: RAT, LIVER, S-9, KANECHLOR 500, Method: PREINCUBATION): inactive; negative

CCCCBr
mutagenic call (End Point: In vitro micronucleus, Test System: Chinese Hamster Ovary (CHO-WBL) cells, Metabolic Activation: None): inactive; negative | mutagenic call (Test System: AMES SALMONELLA TYPHIMURIUM, Strain/Indicator: TA100, Metabolic Activation: NONE, Method: DESICCATOR): active; positive | mutagenic call (Test System: AMES SALMONELLA TYPHIMURIUM, Strain/Indicator: TA100, Metabolic Activation: RAT, LIVER, S-9, AROCLOR 1254, Method: DESICCATOR): active; positive | mutagenic call (Test System: AMES SALMONELLA TYPHIMURIUM, Strain/Indicator: TA1535, Metabolic Activation: NONE, Method: DESICCATOR): active; positive | mutagenic call (Test System: AMES SALMONELLA TYPHIMURIUM, Strain/Indicator: TA1535, Metabolic Activation: RAT, LIVER, S-9, AROCLOR 1254, Method: DESICCATOR): active; positive

Nc1ccc(/C=C/c2ccc([N+](=O)[O-])cc2)cc1
mutagenic call (Test System: AMES SALMONELLA TYPHIMURIUM, Strain/Indicator: TA98 (NR), Metabolic Activation: NONE, Method: STANDARD PLATE): inactive; negative | mutagenic call (Test System: AMES SALMONELLA TYPHIMURIUM, Strain/Indicator: TA98 (NR), Metabolic Activation: S-9, Method: STANDARD PLATE): active; positive | mutagenic call [3]: active; positive | mutagenic call [4]: active; positive | mutagenic call (Test System: AMES SALMONELLA TYPHIMURIUM, Strain/Indicator: TA100 (NR), Metabolic Activation: NONE, Method: STANDARD PLATE): inactive; negative | mutagenic call (Test System: AMES SALMONELLA TYPHIMURIUM, Strain/Indicator: TA100 (NR), Metabolic Activation: S-9, Method: STANDARD PLATE): active; positive | mutagenic call [5]: inactive; negative | mutagenic call [6]: active; positive

Nc1snc2c(Cl)cc(Cl)cc12
mutagenic call [3]: inactive; negative | mutagenic call [4]: inactive; negative | mutagenic call [5]: inactive; negative | mutagenic call [6]: active; positive | mutagenic call [7]: inactive; negative | mutagenic call (Test System: AMES SALMONELLA TYPHIMURIUM, Strain/Indicator: TA1535, Metabolic Activation: S-9, Method: STANDARD PLATE): inactive; negative | mutagenic call (Test System: AMES SALMONELLA TYPHIMURIUM, Strain/Indicator: TA1537, Metabolic Activation: NONE, Method: STANDARD PLATE): inactive; negative | mutagenic call (Test System: AMES SALMONELLA TYPHIMURIUM, Strain/Indicator: TA1537, Metabolic Activation: S-9, Method: STANDARD PLATE): active; positive

CN(Cc1ccc(C#N)cc1)N=O
mutagenic call (Test System: AMES SALMONELLA TYPHIMURIUM, Strain/Indicator: TA1535, Metabolic Activation: HAMSTER, LIVER, S-9, AROCLOR 1254, Method: STANDARD PLATE): active; positive | mutagenic call [7]: inactive; negative

CC(=O)[C@]1(O)Cc2c(O)c3c(c(O)c2[C@@H](O[C@H]2C[C@H](N)[C@H](OC(C[C@H](C)O)O[C@@H](C)C=O)[C@H](C)O2)C1)C(=O)c1c(O)cccc1C3=O (stereo not given in full)
mutagenic call [1]: active; positive | mutagenic call (Test System: AMES SALMONELLA TYPHIMURIUM, Strain/Indicator: TA98, Metabolic Activation: RAT, LIVER, S-9, Method: PREINCUBATION): active; positive | mutagenic call (Test System: AMES SALMONELLA TYPHIMURIUM, Strain/Indicator: TA98, Metabolic Activation: S-9, Method: PREINCUBATION): active; positive | mutagenic call [2]: active; positive | mutagenic call (Test System: AMES SALMONELLA TYPHIMURIUM, Strain/Indicator: TA100, Metabolic Activation: RAT, LIVER, S-9, Method: PREINCUBATION): active; positive | mutagenic call (Test System: AMES SALMONELLA TYPHIMURIUM, Strain/Indicator: TA100, Metabolic Activation: S-9, Method: PREINCUBATION): active; positive | mutagenic call (Test System: CHINESE HAMSTER V-79, Strain/Indicator: V-79/6-THIOGUANINE, Metabolic Activation: NONE): active; positive | mutagenic call (Test System: CHINESE HAMSTER V-79, Strain/Indicator: V-79/6-THIOGUANINE, Metabolic Activation: NONE, Method: REPLATING): active; positive

CC(=O)Nc1ccc(Oc2ccccc2)cc1
mutagenic call [5]: inactive; negative | mutagenic call (Test System: AMES SALMONELLA TYPHIMURIUM, Strain/Indicator: TA100, Metabolic Activation: RAT, LIVER, S-9, KANECLOR 500, Method: STANDARD PLATE): active; positive

Cc1cc2nc3ccc(=[N+](C)C)cc-3sc2cc1N
mutagenic call (Test System: AMES SALMONELLA TYPHIMURIUM, Strain/Indicator: TA97A, Metabolic Activation: NONE, Method: STANDARD PLATE): active; positive | mutagenic call (Test System: AMES SALMONELLA TYPHIMURIUM, Strain/Indicator: TA97A, Metabolic Activation: RAT, LIVER, S-9, AROCLOR 1254, Method: STANDARD PLATE): active; positive | mutagenic call [3]: inactive; negative | mutagenic call (Test System: AMES SALMONELLA TYPHIMURIUM, Strain/Indicator: TA98, Metabolic Activation: RAT, LIVER, S-9, AROCLOR 1254, Method: STANDARD PLATE): active; positive | mutagenic call [5]: inactive; negative | mutagenic call (Test System: AMES SALMONELLA TYPHIMURIUM, Strain/Indicator: TA100, Metabolic Activation: RAT, LIVER, S-9, AROCLOR 1254, Method: STANDARD PLATE): active; positive | mutagenic call (Test System: AMES SALMONELLA TYPHIMURIUM, Strain/Indicator: TA102, Metabolic Activation: NONE, Method: STANDARD PLATE): inactive; negative | mutagenic call (Test System: AMES SALMONELLA TYPHIMURIUM, Strain/Indicator: TA102, Metabolic Activation: RAT, LIVER, S-9, AROCLOR 1254, Method: STANDARD PLATE): active; positive
